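Five compound concentrations were applied to cells in 96-well plates for 48 hours; endpoints were derived by simple linear interpolation of the resulting dose-response curve. The concentration for full growth arrest is given as TGI.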
How the values were obtained:
Test in all cases: NCI-60 cell line screen, 48 h
SK-OV-3 ovarian = test system: SK-OV-3 ovarian
UACC-257 melanoma = test system: UACC-257 melanoma
T-47D breast = test system: T-47D breast
SK-MEL-28 melanoma = test system: SK-MEL-28 melanoma
HCT-116 colon = test system: HCT-116 colon
HL-60(TB) leukemia = test system: HL-60(TB) leukemia
SNB-19 CNS = test system: SNB-19 CNS
CAKI-1 renal = test system: CAKI-1 renal
LOX IMVI melanoma = test system: LOX IMVI melanoma
UO-31 renal = test system: UO-31 renal

SMILES | TGI (SK-OV-3 ovarian) [µM] | TGI (UACC-257 melanoma) [µM] | TGI (T-47D breast) [µM] | TGI (SK-MEL-28 melanoma) [µM] | TGI (HCT-116 colon) [µM] | TGI (HL-60(TB) leukemia) [µM] | TGI (SNB-19 CNS) [µM] | TGI (CAKI-1 renal) [µM] | TGI (LOX IMVI melanoma) [µM] | TGI (UO-31 renal) [µM]
CC(=O)c1cc2c(s1)C(=O)c1ccccc1C2=O | > 80.3 | 3.15 | 20.6 | 36.2 | > 31.2 | > 100 | 5.57 | 37 | 15 | 9.1
CC(C)(C)OC[C@H](O)CC#N | > 100 | > 100 | > 100 | > 100 | > 100 | > 100 | > 100 | > 100 | > 100 | > 100
CC(=O)OCC=C(CCl)CCC(Br)C(C)(C)Br (mixture of isomers) | > 10 | > 10 | > 10 | > 10 | > 10 | > 10 | > 10 | > 10 | > 10 | > 10
COc1ccc(OC)c2c1C1CCC(=O)N1CN2C(C)=O (centres undefined) | > 100 | > 100 | > 100 | > 100 | > 100 | > 100 | > 100 | > 100 | > 100 | > 100
O=C(N[C@H]1c2ccsc2/C(=N/O)[C@H]1O)C(F)(F)F | > 100 | > 100 | > 100 | > 100 | > 100 | > 100 | > 100 | > 100 | > 100 | > 100
Cn1cnc2c(sc3nc4ccccc4n32)c1=N | > 100 | > 100 | > 100 | > 100 | > 100 | > 100 | > 100 | > 100 | > 100 | > 100
CCOC(=O)C(CS)NC(=O)CCCCCCCC(=O)NC(CS)C(=O)OCC (centres undefined) | > 100 | > 100 | > 100 | > 100 | > 100 | > 100 | > 100 | > 100 | > 100 | > 100
O=c1oc2ccc(Cl)cc2cc1-c1cn2cc(Cl)ccc2n1 | > 100 | > 100 | > 100 | > 100 | > 100 | > 100 | > 27.1 | > 100 | > 100 | > 100
CC1(C)Oc2ccc(NC(=O)CCC(N)C(=O)O)cc2O1 (centres undefined) | > 100 |  | > 100 | > 100 | > 100 | > 100 | > 100 | > 100 | > 100 | > 100
CC(C)CNC(=O)Cn1c(-c2ccccc2)cc2ccccc21 | > 100 | > 100 | > 100 | > 100 | > 100 | > 100 | > 100 | > 100 | > 100 | > 100
CC(C)OP(=O)(OC(C)C)C(C(C)C)N(C)/C(F)=N/C(F)(F)F (centres undefined) | > 100 | > 100 | > 100 | > 100 | > 100 | > 100 | > 100 | > 100 | > 100 | > 100
CSc1cc(N)ccc1N=Nc1ccc(S(N)(=O)=O)cc1 | > 100 | > 100 | 58.3 | > 100 | > 100 | 82.8 | > 100 | > 100 | > 100 | 56.1
C[N+](C)(C)c1ncnc2c1ncn2C1CCCCO1 (centres undefined) | > 100 | > 100 | > 100 | > 100 | > 100 | > 100 | > 100 | > 100 | > 100 | > 100
CC1(COS(=O)(=O)OCC2(C)COS(=O)(=O)OC2)COS(=O)(=O)OC1 | > 100 | > 100 | > 100 | > 100 | > 100 | > 58 | > 100 | > 100 | > 77.9 | > 100
NNC(=S)N1CCN(C(=S)NN)CC1 | > 100 | > 100 | > 100 | > 100 | > 100 | > 100 | > 100 | > 100 | > 100 | > 100
c1ccc2c(c1)nc1n2CCSC1 | > 100 | > 100 | > 100 | > 100 | > 100 | > 100 | > 100 | > 100 | > 100 | > 100
